Test results as given in paper PMC9525273 (Nature Communications, 2022).
Where “and” joins values, the source holds several entries; their conditions need not be identical. Equal entries are not always repeated. Where two headings read alike, the source gives them in different places.

Key:
Assay type in all cases: cell-based, Plasmodium falciparum
NF54^G358S-2 parasites = test: P. falciparum proliferation assay (72 h, flow cytometry, SYBR Green I/MitoTracker); details: for FC (IC50) / FC (IC90): NF54G358S-2 compared to NF54WT
Procedure: (§1) For the NF54-based lines and Dd2-B2-PfATP4^G358S and its parent, assays were initiated with cultures containing predominantly ring-stage parasites with a parasitaemia of 0.3% and a haematocrit of 1%. All assays using NF54 were performed in culture media containing 10% O + human serum. The duration of the assays was 72 h and the concentration of DMSO was <0.5% (v/v). Serial dilutions of the test compounds were performed using a Tecan D300e digital dispenser, with parasite cultures added manually. Parasite survival was assessed by flow cytometry on an Intellicyt iQue3 (Essen Bioscience), with 1× SYBR Green I (Invitrogen) and 200 nM MitoTracker Deep Red FM (Invitrogen) used to stain the nucleus and the mitochondria in live parasites, respectively. The gating strategy used to quantify parasite survival, performed using FlowJo version 10 (FlowJo LLC.), is illustrated in Supplementary Fig. 9. IC50 and IC90 values were calculated by linear interpolation of the dose-response data.

NF54^CTL parasites = test: as above; details: for FC (IC50) / FC (IC90): NF54CTL compared to NF54WT
Procedure: as §1

NF54^G358S-1 parasites = test: as above; details: for FC (IC50) / FC (IC90): NF54G358S-1 compared to NF54WT
Procedure: as §1

NF54^WT parasites = test: microbe, parasite or virus in culture; details: for FC (IC50) / FC (IC90): NF54WT, reference line
Procedure: as §1

[1] = system: parasite lines with a G358S mutation in PfATP4; test: P. falciparum proliferation assays, statements on all lines with the G358S mutation; details: G358S lines vs PfATP4 wild-type controls
Procedure: as §1, with “Two types of parasite proliferation assays were employed in this study, with both yielding highly consistent results. For” for “For”
For experiments with all other parasites, the effects of compounds of interest on parasite proliferation was measured in 96-well plates containing serial dilutions of the compounds in culture medium, with a fluorescent DNA-intercalating dye used to detect surviving parasites. The assays were initiated with erythrocytes infected with predominantly ring-stage parasites, and the starting parasitaemia and haematocrit were both 1%. […] Fluorescence was measured using a FLUOstar OPTIMA plate reader (BMG LABTECH), with OPTIMA version 2.20R2 and MARS Data Analysis Software version 3.01 R2 (BMG LABTECH).

Dd2-Polδ parasites = test: P. falciparum proliferation assay (72 h, fluorescent DNA-intercalating dye)
Procedure: (§2) For experiments with all other parasites, the effects of compounds of interest on parasite proliferation was measured in 96-well plates containing serial dilutions of the compounds in culture medium, with a fluorescent DNA-intercalating dye used to detect surviving parasites. The assays were initiated with erythrocytes infected with predominantly ring-stage parasites, and the starting parasitaemia and haematocrit were both 1%.

[2] = system: Dd2-PfATP4^T418N,P990R parasites; test: as above; details: Dd2-PfATP4T418N,P990R parasites; individual experiments; read-out: IC50 values
Procedure: as §2

[3] = system: HCR1 parasites (highly cipargamin-resistant clone 1); test: as above; details: Plasmodium falciparum, HCR1 parasites; individual experiments; read-out: IC50 values
Procedure: as §2

Dd2 parasites = test: as above; details: read-out: IC50 values; Dd2 parasites; individual experiments
Procedure: as §2

[4] = system: HCR2 parasites (highly cipargamin-resistant clone 2); test: as above; details: HCR2 parasites, individual experiments, read-out: IC50 values
Procedure: as §2

[5] = system: Dd2-Polδ-PfATP4^G358S parasites; test: as above; details: Dd2-Polδ-PfATP4G358S parasites; individual experiments; read-out: IC50 values
Procedure: as §2

[6] = NF54G358S-2 parasites, individual experiments, read-out: IC50 values
[7] = NF54G358S-2 parasites, individual experiments, read-out: IC90 values
[8] = Plasmodium falciparum, NF54, NF54G358S-2 parasites, individual experiments, read-out: IC50 values
[9] = Plasmodium falciparum, NF54, NF54G358S-2 parasites, individual experiments, read-out: IC90 values
[10] = Plasmodium falciparum, NF54, NF54G358S-2 parasites, mean of the experiments, read-out: IC50 values, MEAN
[11] = Plasmodium falciparum, NF54, NF54G358S-2 parasites, mean of the experiments, read-out: IC90 values, MEAN
[12] = NF54CTL parasites, individual experiments, read-out: IC50 values
[13] = NF54CTL parasites, individual experiments, read-out: IC90 values
[14] = Plasmodium falciparum, NF54, NF54CTL parasites, individual experiments, read-out: IC90 values
[15] = Plasmodium falciparum, NF54, NF54CTL parasites, mean of the experiments, read-out: IC50 values, MEAN
[16] = Plasmodium falciparum, NF54, NF54CTL parasites, mean of the experiments, read-out: IC90 values, MEAN
[17] = NF54G358S-1 parasites, individual experiments, read-out: IC50 values
[18] = NF54G358S-1 parasites, individual experiments, read-out: IC90 values
[19] = Plasmodium falciparum, NF54, NF54G358S-1 parasites, individual experiments, read-out: IC50 values
[20] = Plasmodium falciparum, NF54, NF54G358S-1 parasites, individual experiments, read-out: IC90 values
[21] = Plasmodium falciparum, NF54, NF54G358S-1 parasites, mean of the experiments, read-out: IC50 values, MEAN
[22] = Plasmodium falciparum, NF54, NF54G358S-1 parasites, mean of the experiments, read-out: IC90 values, MEAN
[23] = NF54WT parasites, individual experiments, read-out: IC50 values
[24] = NF54WT parasites, individual experiments, read-out: IC90 values
[25] = Plasmodium falciparum, NF54, NF54WT parasites, individual experiments, read-out: IC90 values
[26] = Plasmodium falciparum, NF54, NF54WT parasites, mean of the experiments, read-out: IC50 values, MEAN
[27] = Plasmodium falciparum, NF54, NF54WT parasites, mean of the experiments, read-out: IC90 values, MEAN

## Clc1ccc2c(N3CCN(CCCN4CCN(c5ccnc6cc(Cl)ccc56)CC4)CC3)ccnc2c1 [Piperaquine]
NF54^G358S-2 parasites
  FC (IC50): 0.9 fold
  FC (IC90): 1.1 fold
NF54^G358S-2 parasites; [6]
  IC50: 24 nM and 13.5 nM and 13.3 nM
NF54^G358S-2 parasites; [7]
  IC90: 48.2 nM and 27.4 nM and 26.7 nM
NF54^G358S-2 parasites; [8]
  IC50: 21.3 nM
NF54^G358S-2 parasites; [9]
  IC90: 30.8 nM
NF54^G358S-2 parasites; [10]
  IC50: 18 nM
NF54^G358S-2 parasites; [11]
  IC90: 33.3 nM
NF54^CTL parasites
  FC (IC50): 0.9 fold
  FC (IC90): 1.2 fold
NF54^CTL parasites; [12]
  IC50: 20.9 nM and 14.5 nM and 11.8 nM
NF54^CTL parasites; [13]
  IC90: 37.3 nM and 28.1 nM and 26.3 nM
NF54^CTL parasites; Plasmodium falciparum, NF54, NF54CTL parasites, individual experiments, read-out: IC50 values
  IC50: 21.9 nM
NF54^CTL parasites; [14]
  IC90: 45.9 nM
NF54^CTL parasites; [15]
  IC50: 17.3 nM
NF54^CTL parasites; [16]
  IC90: 34.4 nM
NF54^G358S-1 parasites
  FC (IC50): 0.9 fold
  FC (IC90): 1.1 fold
NF54^G358S-1 parasites; [17]
  IC50: 22.2 nM and 14.8 nM and 12.9 nM
NF54^G358S-1 parasites; [18]
  IC90: 43.7 nM and 27.9 nM and 26.4 nM
NF54^G358S-1 parasites; [19]
  IC50: 20.8 nM
NF54^G358S-1 parasites; [20]
  IC90: 34.2 nM
NF54^G358S-1 parasites; [21]
  IC50: 17.7 nM
NF54^G358S-1 parasites; [22]
  IC90: 33 nM
NF54^WT parasites; [23]
  IC50: 22 nM and 14.7 nM and 19.4 nM
NF54^WT parasites; [24]
  IC90: 29.8 nM and 27.5 nM and 28.8 nM
NF54^WT parasites
  FC (IC50): 1.0 fold
  FC (IC90): 1.0 fold
NF54^WT parasites; Plasmodium falciparum, NF54, NF54WT parasites, individual experiments, read-out: IC50 values
  IC50: 22.7 nM
NF54^WT parasites; [25]
  IC90: 30 nM
NF54^WT parasites; [26]
  IC50: 19.7 nM
NF54^WT parasites; [27]
  IC90: 29 nM
[1]
  effect of the G358S mutation in PfATP4 on parasite susceptibility: no effect

## CCCCN(CCCC)CC(O)c1cc(Cl)cc2c1-c1ccc(Cl)cc1/C2=C/c1ccc(Cl)cc1 (stereo not shown) [Lumefantrine]
NF54^G358S-2 parasites
  FC (IC50): 0.7 fold
  FC (IC90): 1.0 fold
NF54^G358S-2 parasites; [6]
  IC50: 31.8 nM and 46.1 nM and 31.3 nM
NF54^G358S-2 parasites; [7]
  IC90: 82.7 nM and 129 nM and 123 nM
NF54^G358S-2 parasites; [8]
  IC50: 55.1 nM
NF54^G358S-2 parasites; [9]
  IC90: 152 nM
NF54^G358S-2 parasites; [10]
  IC50: 41.1 nM
NF54^G358S-2 parasites; [11]
  IC90: 122 nM
NF54^CTL parasites
  FC (IC50): 0.8 fold
  FC (IC90): 1.0 fold
NF54^CTL parasites; [12]
  IC50: 38.6 nM and 28.4 nM and 70.8 nM and 45.8 nM
NF54^CTL parasites; [13]
  IC90: 98.1 nM and 138 nM and 120 nM
NF54^CTL parasites; [14]
  IC90: 138 nM
NF54^CTL parasites; [15]
  IC50: 45.9 nM
NF54^CTL parasites; [16]
  IC90: 123 nM
NF54^G358S-1 parasites
  FC (IC50): 0.7 fold
  FC (IC90): 1.1 fold
NF54^G358S-1 parasites; [17]
  IC50: 34 nM and 51.7 nM and 36.1 nM
NF54^G358S-1 parasites; [18]
  IC90: 115 nM and 130 nM and 120 nM
NF54^G358S-1 parasites; [19]
  IC50: 48.2 nM
NF54^G358S-1 parasites; [20]
  IC90: 182 nM
NF54^G358S-1 parasites; [21]
  IC50: 42.5 nM
NF54^G358S-1 parasites; [22]
  IC90: 137 nM
NF54^WT parasites; [23]
  IC50: 57 nM and 33.7 nM and 89.8 nM and 48.6 nM
NF54^WT parasites; [24]
  IC90: 102 nM and 140 nM and 109 nM
NF54^WT parasites
  FC (IC50): 1.0 fold
  FC (IC90): 1.0 fold
NF54^WT parasites; [25]
  IC90: 142 nM
NF54^WT parasites; [26]
  IC50: 57.3 nM
NF54^WT parasites; [27]
  IC90: 123 nM
[1]
  effect of the G358S mutation in PfATP4 on parasite susceptibility: no effect

## CCN(CC)CCCC(C)Nc1ccnc2cc(Cl)ccc12 (stereo not shown) [Chloroquine]
Dd2-Polδ parasites; Dd2-Polδ parasites, individual experiments, read-out: IC50 values
  IC50: 172 nM and 316 nM
Dd2-Polδ parasites; Plasmodium falciparum, DD2, Dd2-Polδ parasites, mean of the experiments, read-out: IC50 values, MEAN
  IC50: 185 nM
Dd2-Polδ parasites; Plasmodium falciparum, DD2, SET-2, read-out: Mean IC50 value ± SEM for growth inhibition, Dd2-Polδ, Supplementary Table 1, Set 2
  IC50: 185 nM
[2]
  IC50: 165 nM
[3]
  IC50: 92 nM
Dd2 parasites
  IC50: 92 nM and 187 nM
[4]
  IC50: 229 nM
[4]; Plasmodium falciparum
  IC50: 159 nM
[5]
  IC50: 161 nM and 262 nM and 227 nM
